Counter-ions that a name gives are not always drawn.
Target: T1, DβH (Homo sapiens, UniProt P09172)
T1 construct: 125 μL of plasma (or saline for blank reaction or standard curve); tissue Instituto Português do Sangue Transplantação, Centro Sangue Transplantação, Porto, Portugal; host or cells: human plasma from healthy donors
T1 sequence (P09172 40-617 limits assumed): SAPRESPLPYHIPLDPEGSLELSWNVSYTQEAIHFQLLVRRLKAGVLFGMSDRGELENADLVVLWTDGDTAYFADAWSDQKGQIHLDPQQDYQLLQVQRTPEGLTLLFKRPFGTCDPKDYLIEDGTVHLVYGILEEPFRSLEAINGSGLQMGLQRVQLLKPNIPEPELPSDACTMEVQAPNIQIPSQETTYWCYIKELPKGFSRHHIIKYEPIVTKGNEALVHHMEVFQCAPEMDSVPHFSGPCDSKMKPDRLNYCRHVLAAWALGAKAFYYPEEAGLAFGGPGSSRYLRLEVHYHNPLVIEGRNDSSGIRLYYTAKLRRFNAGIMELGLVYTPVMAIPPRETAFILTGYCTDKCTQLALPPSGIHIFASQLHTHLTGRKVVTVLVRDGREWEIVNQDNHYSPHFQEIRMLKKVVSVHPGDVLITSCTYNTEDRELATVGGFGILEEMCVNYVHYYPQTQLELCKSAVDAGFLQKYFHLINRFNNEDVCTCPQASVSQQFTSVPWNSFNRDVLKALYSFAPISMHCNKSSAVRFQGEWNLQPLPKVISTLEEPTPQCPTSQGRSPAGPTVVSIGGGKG
Assay: Dopamine-β-hydroxylase inhibition assay in human plasma
Type: biochemical
Conditions: for DβH (0.01 μM) / remaining activity at 0.01 µM: DβH activity in human plasma at 0.01 μM inhibitor; for DβH (0.1 μM) / remaining activity at 0.1 µM: DβH activity in human plasma at 0.1 μM inhibitor; for IC50: human plasma, curve fitting of 6 concentrations (100 nM to 0.3 nM)
Description: The ability of a compound to inhibit DβH activity may be assessed in human plasma using the following assay.
Dopamine beta hydroxylase activity in human plasma was measured by the method of Nagatsu and Udenfriend (Nagatsu, T. and Udenfriend, S. “Photometric assay of dopamine-p-hydroxylase activity in human blood.” Clin. Chem. 18(9) 980-983, 1972) with minor modifications. Catalase, N-ethylmaleimide, tyramine, disodium fumarate, pargyline, sodium acetate, ascorbic acid, copper sulfate and octopamine were obtained from Sigma Chemical Co., St. Louis, Mo. 63178. Human plasma samples were obtained from healthy donors (Instituto Português do Sangue Transplantação, Centro Sangue Transplantação, Porto, Portugal). From date of collection, plasma was stored at −80° C. until use. Test compounds were initially prepared in dimethyl sulfoxide at a concentration of 10 mM and diluted in dimethyl sulfoxide to the required concentrations. Test compounds were further diluted in ultrapure water to a concentration 20-fold to that of the final concentration to be tested. Final concentrations of test compounds were 10 and 100 nM. The various reagents used to make up the incubation buffer were premixed and consisted of the following components: sodium acetate buffer (1 M, pH 5.0, 18 mL), sodium fumarate (0.2 M, 4.5 mL), ascorbic acid (0.2 M, 4.5 ml, freshly prepared), pargyline (20 mM, freshly prepared, 4.5 mL), N-ethylmaleimide (0.2 M, 4.5 mL), catalase (10 000 U/mL, 9 mL), copper sulfate (20 μM, 4.5 mL) and 4.5 ultrapure water. The standard incubation mixture (total volume, 950 μL) contained: 50 μL of compound or vehicle (dimethyl sulfoxide 2%); 700 μL of incubation buffer; 125 μL of plasma (or saline for blank reaction or standard curve); 75 μL of saline. The reaction mixture was placed in water bath, shaking at 37° C. and pre-incubated for 10 minutes. Tyramine (0.5 M) was added and incubation proceeded for 45 minutes. The reaction contents were exposed to air. A sample of enzyme preparation (with 125 μL of plasma) that had been added perchloric acid 2 M at the end of the pre-incubation period was used as blank. A blank for each of the tested compounds was used. For octopamine standard curve, perchloric acid 2 M was replaced by increasing concentrations of octopamine prepared in perchloric acid 2 M (0.5, 1, 2.5, 5, 7.5, 10, 15, 20 μg/mL, final concentration). The incubation was stopped by adding 200 μL of 2 M molar perchloric acid, and the mixture was centrifuged at 9000 g for 5 min. The supernatant fluid (800 μL) was transferred to a column (SPE cartridge ISOLUTE SCX-3, 100 mg) and centrifuged at 150 g for 2 min. The column was washed two more times with 0.5 ml of ultrapure water by centrifuging at 150 g for 2 min. The adsorbed octopamine was eluted twice with 0.3 mL of 4 M ammonium hydroxide by centrifuging at 150 g for 2 min. Octopamine in the eluate was then converted to p-hydroxybenzaldehyde by adding 200 μL of sodium periodate (2%) and incubating for 6 min. Excess periodate was than reduced by adding 200 μL of sodium metabisulfite (10%). Absorbance was measured at […] in a 96-well plate by use of a SpectraMAX plus 384 (Molecular Devices) with software SOFTmax® PRO Software 5.3 spectrophotometer. Absorbance was linear with octopamine concentration from 0.5 to 20 μg/mL. Dopamine beta hydroxylase activity is determined as nmol of octopamine formed/mL of plasma/hour and effect of compounds is presented as % control. Results are reported in the table below as activity in % of control at the inhibitor concentration tested.
IC50 values of selected compounds were calculated based on curve fitting of results of 6 different compound concentrations (100 nM to 0.3 nM). IC50 data are reported in nM concentration.

Row | SMILES | DβH (0.01 μM) | DβH (0.1 μM) | remaining activity at 0.01 µM | remaining activity at 0.1 µM | IC50
1 | CN(C)CCCc1[nH]c(=S)n2c1C[C@H](c1c(F)ccc(F)c1F)C2.Cl [Example 10, (R)-1-(3-(dimethylamino)propyl)-6-(2,3,6-trifluorophenyl)-2,5,6,7-tetrahydro-3H-pyrrolo[1,2-c]imidazole-3-thione hydrochloride] | 86.2 % of Control | 45.8 % of Control |  |  | 
2 | Fc1ccc(F)c([C@H]2Cc3c(CCCNCC4CCOCC4)[nH]c(=S)n3C2)c1F [Example 3, (R)-1-(3-(((tetrahydro-2H-pyran-4-yl)methyl)amino)propyl)-6-(2,3,6-trifluorophenyl)-2,5,6,7-tetrahydro-3H-pyrrolo[1,2-c]imidazole-3-thione] |  |  | 57.3% | 15.5% | 9.5 nM
3 | Fc1ccc(Cl)cc1[C@]12C[C@H]1c1c(CCCN3CCCC3)[nH]c(=S)n1C2 [Example 20, (5aS,6aR)-5a-(5-chloro-2-fluorophenyl)-1-(3-(pyrrolidin-1-yl)propyl)-5,5a,6,6a-tetrahydrocyclopropa[3,4]pyrrolo[1,2-c]imidazole-3(2H)-thione] |  |  | 53.4% | 9.1% | 9.8 nM
4 | Fc1ccc(F)c([C@H]2Cc3c(CCCN4CC[C@@H](F)C4)[nH]c(=S)n3C2)c1F [Example 11, (R)-1-(3-((R)-3-fluoropyrrolidin-1-yl)propyl)-6-(2,3,6-trifluorophenyl)-2,5,6,7-tetrahydro-3H-pyrrolo[1,2-c]imidazole-3-thione] | 40.6 % of Control | 7.7 % of Control |  |  | 7.2 nM
5 | Fc1ccc(Cl)cc1[C@]12C[C@H]1c1c(CCCN3CCOCC3)[nH]c(=S)n1C2 [Example 16, (5aS,6aR)-5a-(5-chloro-2-fluorophenyl)-1-(3-morpholinopropyl)-5,5a,6,6a-tetrahydrocyclopropa[3,4]pyrrolo[1,2-c]imidazole-3(2H)-thione] |  |  | 36.2% | 3.3% | 7.7 nM
6 | Fc1ccc(Cl)c(F)c1[C@]12C[C@H]1c1c(CCCN3CCOCC3)[nH]c(=S)n1C2 [Example 15, (5aS,6aR)-5a-(3-chloro-2,6-difluorophenyl)-1-(3-morpholinopropyl)-5,5a,6,6a-tetrahydrocyclopropa[3,4]pyrrolo[1,2-c]imidazole-3(2H)-thione hydrochloride] |  |  | 13.6% | 1% | 2.7 nM
7 | Fc1ccc(Cl)c(F)c1[C@]12C[C@H]1c1c(CCCN[C@H]3CCCOC3)[nH]c(=S)n1C2 [Example 22, (5aS,6aR)-5a-(3-chloro-2,6-difluorophenyl)-1-(3-(((S)-tetrahydro-2H-pyran-3-yl)amino)propyl)-5,5a,6,6a-tetrahydrocyclopropa[3,4]pyrrolo[1,2-c]imidazole-3(2H)-thione] |  |  | 23.5% | 3.5% | 4 nM
8 | Fc1ccc(Cl)c(F)c1[C@]12C[C@H]1c1c(CCCNC3CCOCC3)[nH]c(=S)n1C2 [Example 18, (5aS,6aR)-5a-(3-chloro-2,6-difluorophenyl)-1-(3-((tetrahydro-2H-pyran-4-yl)amino)propyl)-5,5a,6,6a-tetrahydrocyclopropa[3,4]pyrrolo[1,2-c]imidazole-3(2H)-thione] |  |  | 20.1% | 1% | 4 nM
9 | Fc1ccc(Cl)c(F)c1[C@]12C[C@H]1c1c(CCCN3CCCC3)[nH]c(=S)n1C2 [Example 19, (5aS,6aR)-5a-(3-chloro-2,6-difluorophenyl)-1-(3-(pyrrolidin-1-yl)propyl)-5,5a,6,6a-tetrahydrocyclopropa[3,4]pyrrolo[1,2-c]imidazole-3(2H)-thione] |  |  | 17% | 1% | 3 nM
10 | Cl.Fc1ccc(F)c([C@H]2Cc3c(CCCN4CC[C@@H](F)C4)[nH]c(=S)n3C2)c1F [Example 7, (R)-1-(3-((R)-3-fluoropyrrolidin-1-yl)propyl)-6-(2,3,6-trifluorophenyl)-2,5,6,7-tetrahydro-3H-pyrrolo[1,2-c]imidazole-3-thione hydrochloride] |  | 3.0 % of Control | 42.5% |  | 8.3 nM
11 | Fc1ccc(F)c([C@H]2Cc3c(CCCNC4CCOCC4)[nH]c(=S)n3C2)c1F [Example 5, (R)-1-(3-((tetrahydro-2H-pyran-4-yl)amino)propyl)-6-(2,3,6-trifluorophenyl)-2,5,6,7-tetrahydro-3H-pyrrolo[1,2-c]imidazole-3-thione] |  |  | 42.5% | 5.4% | 12.7 nM
12 | Fc1ccc(Cl)cc1[C@]12C[C@H]1c1c(CCCN[C@H]3CCCOC3)[nH]c(=S)n1C2 [Example 21, (5aS,6aR)-5a-(5-chloro-2-fluorophenyl)-1-(3-(((S)-tetrahydro-2H-pyran-3-yl)amino)propyl)-5,5a,6,6a-tetrahydrocyclopropa[3,4]pyrrolo[1,2-c]imidazole-3(2H)-thione] |  |  | 45.3% | 8.5% | 
13 | Cl.NCCCc1[nH]c(=S)n2c1C[C@H](c1c(F)ccc(F)c1F)C2 [Example 4, (R)-1-(3-aminopropyl)-6-(2,3,6-trifluorophenyl)-2,5,6,7-tetrahydro-3H-pyrrolo[1,2-c]imidazole-3-thione hydrochloride] | 82.7 % of Control | 54.2 % of Control |  |  | 
14 | Fc1ccc(F)c([C@H]2Cc3c(CCCN4CCOCC4)[nH]c(=S)n3C2)c1F [Example 6, (R)-1-(3-morpholinopropyl)-6-(2,3,6-trifluorophenyl)-2,5,6,7-tetrahydro-3H-pyrrolo[1,2-c]imidazole-3-thione] |  |  | 63.6% | 10.4% | 11.6 nM
15 | Fc1ccc(Cl)cc1[C@]12C[C@H]1c1c(CCCNC3CCOCC3)[nH]c(=S)n1C2 [Example 17, (5aS,6aR)-5a-(5-chloro-2-fluorophenyl)-1-(3-((tetrahydro-2H-pyran-4-yl)amino)propyl)-5,5a,6,6a-tetrahydrocyclopropa[3,4]pyrrolo[1,2-c]imidazole-3(2H)-thione] |  |  | 41.8% | 3.9% | 9.9 nM
16 | CN(CCCc1[nH]c(=S)n2c1C[C@H](c1c(F)ccc(F)c1F)C2)C1CCOCC1.Cl [Example 14, (R)-1-(3-(methyl(tetrahydro-2H-pyran-4-yl)amino)propyl)-6-(2,3,6-trifluorophenyl)-2,5,6,7-tetrahydro-3H-pyrrolo[1,2-c]imidazole-3-thione hydrochloride] | 73.2 % of Control | 19.0 % of Control |  |  | 33.1 nM
